Source: US20240166630A1, “INDOLE DERIVATIVES AS SEROTONERGIC AGENTS USEFUL FOR THE TREATMENT OF DISORDERS RELATED THERETO” (Mindset Pharma Inc., priority 2021, published 2024)

Key:
[1] = target: T1, human 5-HT2A (h5-HT2A) receptor (Homo sapiens, UniProt P28223); assay: FLIPR assay, human 5-HT2A receptor under agonist mode; type: cell-based
T1 construct: expressed in transfected cells; kept under G418 and hygromycin B selection
Protocol: I. Assessment of the Activated Effect of Compounds of Formula I-B Targeting on Human 5-HT2A (h5-HT2A) Receptor Under Agonist Mode:
1. The cells were cultured in cell culture medium (DMEM containing 10% FBS, 1× penicillin-streptomycin 300 μg/ml G418 and 100 μg/ml hygromycin B) at 37° C., 5% (v/v) CO2.
2. One day before the assays, the cells were detached using TrypLE™ Express and count cells using cell counter.
3. 20000 cells/well were seeded in 30 μl/well culture medium to a 384-well cell plate and incubated the cells overnight at 37° C., 5% (v/v) CO2.
4. On the assay day, 2×dye solution was prepared following the manual of the FLIPR® Calcium 6 Assay Kit: i. The dye was diluted with assay buffer (20 mM HEPES in 1×HBSS, PH7.4); ii. probenecid was added to the final concentration of 5 mM; iii. Vortexed vigorously for 1-2 minutes.
5. Medium was removed from cell plate by flicking the cell plate on towel papers.
7. The cell plate was placed on plate shaker, the plate agitated at 600 rpm for 2 minutes. The plate was incubated at 37° C. for 2 hours followed by additional 15-minute incubation at 25° C.
8. 3×compound was prepared in assay buffer: a. Reference compounds were diluted to required concentration with DMSO. The compounds were added to a 384-well compound plate; b. Serial dilutions were performed; c. 10 mM test compounds were added to the compound plate, 3-fold serial dilutions were performed. […] 20 μl/well assay buffer was added to the compound plate; f.
9. The cell plate, compound plate and tips were placed into FLIPR, 10 μl of 3× compound was transferred to the cell plate per well with FLIPR.
i. The normalized fluorescence reading (RFU) was calculated as shown follow, while Fmax and Fmin stand for maximum and minimum of calcium signal during defined time window: RFU=Fmax−Fmin
ii. The percentage activation was calculated by using following equation: […]
iii. EC50 was calculated by fitting % activation against log of compound concentrations with Hill equation using Xlfit.

human 5-HT2A [2] = target: T2, human 5-HT2A (Homo sapiens, UniProt P28223); assay: Radioligand binding assay on human 5-HT2A receptor ([3H]-ketanserin)
Protocol: i. The assay buffer was prepared following the table below;
iii. Prepared (v/v) DMSO as follows: a. […] The plates were sealed and incubated at 4° C. for 3 hrs;
iv. Preparation of assay plates: a.
vi. The plates were sealed and incubated at 27° C. for 90 min.

[3] = Liver microsomes stability with NADPH, human; conditions: for Remaining Percentage (%) after 60 min Human: 2 μM; for half-life at 2 μM / microsomal CLint at 2 μM: human, microsomes
Protocol: (§1) The objective of this study was to estimate in vitro metabolic stability of representative compounds of the application in pooled human and male mouse liver microsomes. The concentrations of parent compounds in reaction systems were evaluated by LC-MS/MS for estimating the stability in pooled human and male mouse liver microsomes. The in vitro intrinsic clearances of test compounds were determined as well.
(§2) A master solution in the “Incubation Plate” containing phosphate buffer, ultra-pure H2O, MgCl2 solution and liver microsomes was made according to Table 3. The mixture was pre-warmed at 37° C. water bath for 5 minutes.
(§3) 40 μL of 10 mM NADPH solution was added to each well. The final concentration of NADPH was 1 mM. The negative control samples were prepared by replacing NADPH with 40 μL of ultra-pure H2O. Samples were prepared in duplicate. Negative controls were prepared in singlet.
(§4) The reaction was started with the addition of 4 μL of 200 μM test compounds or control compounds to each master solution to get the final concentration of 2 μM. This study was performed in duplicate.
(§5) Aliquots of 50 μL were taken from the reaction solution at 0, 15, 30, 45 and 60 minutes. The reaction solutions were stopped by the addition of 4 volumes of cold methanol with IS (100 nM alprazolam, 200 nM imipramine, 200 nM labetalol and 2 μM ketoprofen). Samples were centrifuged at 3,220 g for 40 minutes. Aliquot of 90 μL of the supernatant was mixed with 90 μL of ultra-pure H2O and then was used for LC-MS/MS analysis.
(§6) LC/MS analysis was performed for all samples from this study using a Shimadzu liquid chromatograph separation system equipped with degasser DGU-20A5R; solvent delivery unit LC-30AD; system controller SIL-30AC; column oven CTO-30A; CTC Analytics HTC PAL System; Mass spectrometric analysis was performed using an Triple Quad™ 5500 instrument.
(§7) All calculations were carried out using Microsoft Excel. Peak area ratios of test compound to internal standard (listed in the below table) were determined from extracted ion chromatograms.
(§8) All calculations were carried out using Microsoft Excel. Peak areas were determined from extracted ion chromatograms. The slope value, k, was determined by linear regression of the natural logarithm of the remaining percentage of the parent drug vs. incubation time curve.
(§9) The in vitro half-life (in vitro t1/2) was determined from the slope value:
(§10) Conversion of the in vitro t1/2 (min) into the in vitro intrinsic clearance (in vitro CLint, in μL/min/mg proteins) was done using the following equation (mean of duplicate determinations): […]

[4] = Liver microsomes stability with NADPH, mouse; conditions: for half-life at 2 μM / microsomal CLint at 2 μM: male, mouse, microsomes; for Remaining Percentage (%) after 60 min Mouse: mouse liver microsomes, with NADPH, 2 μM
Protocol: as §1, §2, §3, §4, §5, §6, §7, §8, §9, §10

[5] = Liver microsomes stability with NADPH, rat; conditions: for Remaining Percentage (%) after 60 min Rat: rat liver microsomes, with NADPH, 2 μM; for half-life at 2 μM / microsomal CLint at 2 μM: rat, microsomes
[6] = rapid first-pass metabolism by monoamine oxidase; cited from earlier work
human 5-HT2A [7] = target: T2, human 5-HT2A; conditions: read-out: binding affinity 5-HT2A; literature value; cited from earlier work
[8] = human liver microsomes, with NADPH

T1 sequence (P28223 whole entry): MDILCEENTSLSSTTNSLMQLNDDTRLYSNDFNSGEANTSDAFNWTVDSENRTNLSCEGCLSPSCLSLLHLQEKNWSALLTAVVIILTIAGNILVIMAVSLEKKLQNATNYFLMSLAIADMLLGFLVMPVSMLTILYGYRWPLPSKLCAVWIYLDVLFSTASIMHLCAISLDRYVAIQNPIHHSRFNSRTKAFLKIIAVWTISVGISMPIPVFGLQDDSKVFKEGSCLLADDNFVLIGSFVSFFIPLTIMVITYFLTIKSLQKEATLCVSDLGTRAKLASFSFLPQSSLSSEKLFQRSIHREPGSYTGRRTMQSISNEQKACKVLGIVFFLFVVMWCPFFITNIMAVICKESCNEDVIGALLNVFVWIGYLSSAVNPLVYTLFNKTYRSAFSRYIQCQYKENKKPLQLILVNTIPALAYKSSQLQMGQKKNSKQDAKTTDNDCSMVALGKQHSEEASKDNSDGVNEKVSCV
T2 sequence (P28223 whole entry): as above

SMILES | EC50 [1] | IC50 (human 5-HT2A [2]) | Remaining Percentage (%) after 60 min Human [3, 8] | half-life at 2 μM [3] | microsomal CLint at 2 μM [3] | half-life at 2 μM [4] | microsomal CLint at 2 μM [4] | Remaining Percentage (%) after 60 min Mouse [4] | Remaining Percentage (%) after 60 min Rat [5] | half-life at 2 μM [5] | microsomal CLint at 2 μM [5] | Half-Life t1/2 (min) Human [3, 8] | CLint (μL/min/mg protein) Human [3, 8] | oral activity [6] | Ki (human 5-HT2A [7])
[2H]C([2H])([2H])Oc1ccc2[nH]cc(C([2H])([2H])[C@H]3CCCN3C([2H])([2H])[2H])c2c1 [I-B-12, (R)-5-(methoxy-d3)-3-((1-(methyl-d3)pyrrolidin-2-yl)methyl-d2)-1H-indole] | < 100 nM | < 500 nM | 78.24% | 2.82 h | 6.86 µL/min/mg | 1.51 h | 38.4 µL/min/mg | 63.17% | 35.87% | 0.676 h | 29 µL/min/mg |  |  |  | 
[2H]C([2H])(c1c[nH]c2ccc(OC)cc12)[C@H]1CCCN1 [I-B-16, (R)-5-methoxy-3-(pyrrolidin-2-ylmethyl-d2)-1H-indole] | < 100 nM | < 500 nM | 85.35% | 4.38 h | 5.01 µL/min/mg | 1.36 h | 40.6 µL/min/mg | 60.16% | 34.51% | 0.651 h | 29.5 µL/min/mg |  |  |  | 
[2H]C([2H])([2H])Oc1ccc2[nH]cc(C[C@H]3CCCN3)c2c1 [I-B-14, (R)-5-(methoxy-d3)-3-(pyrrolidin-2-ylmethyl)-1H-indole] | < 100 nM | < 500 nM | 110.97% |  |  | 8.15 h | 10.9 µL/min/mg | 91.85% | 92.44% | 8.82 h | 4.33 µL/min/mg | ∞ |  |  | 
[2H]C([2H])(c1c[nH]c2ccc(OC)cc12)[C@H]1CCCN1C [I-B-10, (R)-5-methoxy-3-((1-methylpyrrolidin-2-yl)methyl-d2)-1H-indole] | < 100 nM | < 500 nM | 78.24% | 2.82 h | 6.86 µL/min/mg | 1.51 h | 38.4 µL/min/mg | 63.17% | 35.87% | 0.676 h | 29 µL/min/mg |  |  |  | 
[2H]C([2H])([2H])Oc1ccc2[nH]cc(C[C@H]3CCCN3C([2H])([2H])[2H])c2c1 [I-B-11, (R)-5-(methoxy-d3)-3-((1-(methyl-d3)pyrrolidin-2-yl)methyl)-1H-indole] | < 100 nM | < 500 nM | 85.35% | 4.38 h | 5.01 µL/min/mg | 1.36 h | 40.6 µL/min/mg | 60.16% | 34.51% | 0.651 h | 29.5 µL/min/mg |  |  |  | 
COc1ccc2[nH]cc(CCN(C)C)c2c1 [Compound 5-MeO-DMT, 5-methoxy-N,N-dimethyltryptamine, reference compound] |  |  | 4.82% |  |  | 0.842 h | 27.4 µL/min/mg | 89.36% | 16.02% | 0.378 h | 61 µL/min/mg | 13.75 min | 101.08 μL/min/mg protein | not orally active | 
[2H]C([2H])(c1c[nH]c2ccc(OC)cc12)[C@H]1CCCN1C([2H])([2H])[2H] [I-B-13, (R)-5-methoxy-3-((1-(methyl-d3)pyrrolidin-2-yl)methyl-d2)-1H-indole] | < 100 nM | < 500 nM |  |  |  |  |  |  |  |  |  |  |  |  | 
[2H]C([2H])(c1c[nH]c2ccccc12)[C@H]1CCCN1 [I-B-8, (R)-3-(pyrrolidin-2-ylmethyl-d2)-1H-indole] | 100 to 1000 nM | 500 to 5000 nM | 91.11% | 7.44 h | 3.1 µL/min/mg | 1.22 h | 18.9 µL/min/mg | 56.72% | 38.89% | 0.734 h | 31.5 µL/min/mg |  |  |  | 
[2H]C([2H])(c1c[nH]c2ccccc12)[C@H]1CCCN1C [I-B-2, (R)-3-((1-methylpyrrolidin-2-yl)methyl-d2)-1H-indole] | < 100 nM | < 500 nM | 64.96% | 1.61 h | 9.64 µL/min/mg | 1.02 h | 47.1 µL/min/mg | 50.81% | 0.81% | 0.144 h | 46.3 µL/min/mg |  |  |  | 
[2H]C([2H])([2H])Oc1ccc2[nH]cc(C([2H])([2H])[C@H]3CCCN3)c2c1 [I-B-15, (R)-5-(methoxy-d3)-3-(pyrrolidin-2-ylmethyl-d2)-1H-indole] | < 100 nM | < 500 nM |  |  |  |  |  |  |  |  |  |  |  |  | 
CN(C)CCc1c[nH]c2ccccc12 [DMT, N,N-dimethyltryptamine, reference compound] | 100 to 1000 nM | 500 to 5000 nM | 0.72% |  |  | 0.842 h | 27.4 µL/min/mg | 65.90% | 17.29% | 0.378 h | 61 µL/min/mg |  |  | not orally active | 0.237 nM
[2H]C([2H])([2H])N1CCC[C@@H]1Cc1c[nH]c2ccc(OC)cc12 [I-B-9, (R)-5-methoxy-3-((1-(methyl-d3)pyrrolidin-2-yl)methyl)-1H-indole] | < 100 nM | < 500 nM |  |  |  |  |  |  |  |  |  |  |  |  | 
